According to patent US20240209028A1, “CNP COMPOUNDS” (priority 2022, published 2024):
Starred links: 1 amine or outer side, 2 acyl side, 3 side chain; linkers in the order of their positions; H or OH if unused. Positions of bridges follow the written chain, without caps; N, C: chain ends. Residues, ends and D or L forms follow the SMILES beside them. *: point of attachment. C18 diacid = O=C(O)CCCCCCCCCCCCCCCCC(=O)*; γGlu = O=C(O)[C@H](CCC(=O)[*:2])N[*:1]; AEEA = NCCOCCOCC(=O)O

Target: T1, human natriuretic peptide receptor 2 (hNPR2) (Homo sapiens, UniProt P20594)
T1 construct: expressed in transfected cells; host or cells: HEK293 (ATCC CRL-1573), clone 35, co-transfected with pGloSensor-42F
T1 sequence (P20594 23-1047): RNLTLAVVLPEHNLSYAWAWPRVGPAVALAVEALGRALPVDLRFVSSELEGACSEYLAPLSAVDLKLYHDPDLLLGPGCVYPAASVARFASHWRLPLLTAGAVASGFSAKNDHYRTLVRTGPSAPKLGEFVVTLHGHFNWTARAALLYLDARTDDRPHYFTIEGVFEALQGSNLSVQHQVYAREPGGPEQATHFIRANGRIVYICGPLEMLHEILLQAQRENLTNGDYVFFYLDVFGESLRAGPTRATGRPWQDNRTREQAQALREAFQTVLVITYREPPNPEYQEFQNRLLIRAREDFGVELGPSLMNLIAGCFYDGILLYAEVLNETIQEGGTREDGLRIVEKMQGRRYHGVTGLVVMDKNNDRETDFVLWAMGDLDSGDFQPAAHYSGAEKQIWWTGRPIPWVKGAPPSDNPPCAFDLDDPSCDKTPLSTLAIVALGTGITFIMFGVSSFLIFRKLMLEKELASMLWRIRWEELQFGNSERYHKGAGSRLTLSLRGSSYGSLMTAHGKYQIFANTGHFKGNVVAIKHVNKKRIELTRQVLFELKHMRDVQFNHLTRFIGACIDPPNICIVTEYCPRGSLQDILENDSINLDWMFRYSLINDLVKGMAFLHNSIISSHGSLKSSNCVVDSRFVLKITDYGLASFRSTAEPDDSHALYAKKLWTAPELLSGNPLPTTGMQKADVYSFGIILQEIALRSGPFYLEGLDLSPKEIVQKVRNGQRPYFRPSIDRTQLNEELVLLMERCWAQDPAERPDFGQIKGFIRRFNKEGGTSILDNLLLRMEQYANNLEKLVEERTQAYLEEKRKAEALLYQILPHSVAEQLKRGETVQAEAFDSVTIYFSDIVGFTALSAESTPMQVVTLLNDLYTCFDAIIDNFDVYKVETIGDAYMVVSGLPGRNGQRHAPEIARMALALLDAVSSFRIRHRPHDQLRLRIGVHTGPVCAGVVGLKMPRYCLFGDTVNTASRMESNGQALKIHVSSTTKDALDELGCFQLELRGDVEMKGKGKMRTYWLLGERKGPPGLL
Assay: In vitro hNPR2 activity assay (cGMP GloSensor reporter, HEK293)
Format: cell-based
Conditions: for hNPR2 0% HSA. [EC50% rel CNP]: potency relative to CNP22 (0065); for EC50: 0% HSA, HEK293-hNPR2/GloSensor cells
How it was run: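 Potency is the EC50 from a four-parameter logistic fit, also expressed relative to the in-plate CNP22 control (×100), with at least two replicates. Compounds (ten concentrations, […], HSA-free diluent with 1% OVA, 0.01% Tween20) were incubated 30 min at 37 °C on HEK293 cells co-expressing hNPR2 and a GloSensor cGMP luciferase. Luminescence detected with Bright-Glo.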

CC[C@H](C)[C@@H]1NC(=O)[C@H](CCCNC(=N)N)NC(=O)[C@H](CC(=O)O)NC(=O)[C@H](CC(C)C)NC(=O)[C@@H]2CCCN2C(=O)[C@H](CC(C)C)NC(=O)CNC(=O)[C@H](Cc2ccccc2)NC(=O)[C@@H](NC(=O)CNC(=O)[C@H](CCC(N)=O)NC(=O)[C@H](CO)NC(=O)[C@H](CC(C)C)NC(=O)CNC(=O)[C@H](CCCCN)NC(=O)[C@H](CCCCN)NC(=O)[C@H](CCC(N)=O)NC(=O)[C@H](C)NC(=O)CNC(=O)[C@H](CCCCN)NC(=O)[C@H](Cc2ccc(O)cc2)NC(=O)[C@H](CCCCN)NC(=O)[C@H](CCCNC(=N)N)NC(=O)[C@H](C)NC(=O)[C@H](CCC(N)=O)NC(=O)[C@@H]2CCCN2C(=O)[C@H](Cc2c[nH]cn2)NC(=O)[C@H](CCC(=O)O)NC(=O)[C@H](CCC(N)=O)NC(=O)COCCOCCNC(=O)COCCOCCNC(=O)CC[C@H](NC(=O)CC[C@H](NC(=O)CC[C@H](NC(=O)CC[C@H](NC(=O)CCCCCCCCCCCCCCCCC(=O)O)C(=O)O)C(=O)O)C(=O)O)C(=O)O)CSSC[C@@H](C(=O)O)NC(=O)CNC(=O)[C@H](CC(C)C)NC(=O)CNC(=O)[C@H](CO)NC(=O)[C@H](CC(C)C)NC(=O)[C@H](CO)NC(=O)CNC1=O [compound 1472] ({C18 diacid-γGlu-γGlu-γGlu-γGlu-AEEA-AEEA}-QEHPQARKYKGAQKKGLSQGCFGLPLDRIGSLSGLGC-OH; disulfide 21-37; C-terminus assumed)
hNPR2 0% HSA. [EC50% rel CNP]: 52.0%

CC[C@H](C)[C@@H]1NC(=O)[C@H](CCCNC(=N)N)NC(=O)[C@H](CC(=O)O)NC(=O)[C@H](CC(C)C)NC(=O)[C@@H]2CCCN2C(=O)[C@H](CC(C)C)NC(=O)CNC(=O)[C@H](Cc2ccccc2)NC(=O)[C@@H](NC(=O)CNC(=O)[C@H](CCC(N)=O)NC(=O)[C@H](CO)NC(=O)[C@H](CC(C)C)NC(=O)CNC(=O)[C@H](Cc2c[nH]cn2)NC(=O)[C@H](Cc2c[nH]cn2)NC(=O)[C@H](CCC(N)=O)NC(=O)[C@H](C)NC(=O)CNC(=O)[C@H](CCCCN)NC(=O)[C@H](Cc2ccc(O)cc2)NC(=O)COCCOCCNC(=O)COCCOCCNC(=O)CC[C@H](NC(=O)CCCCCCCCCCCCCCCCC(=O)O)C(=O)O)CSSC[C@@H](C(=O)O)NC(=O)CNC(=O)[C@H](CC(C)C)NC(=O)CNC(=O)[C@H](CO)NC(=O)[C@H](CC(C)C)NC(=O)[C@H](CO)NC(=O)CNC1=O [compound 1341] ({C18 diacid-γGlu-AEEA-AEEA}-YKGAQHHGLSQGCFGLPLDRIGSLSGLGC-OH; disulfide 13-29; C-terminus assumed)
hNPR2 0% HSA. [EC50% rel CNP]: 16.7%

CC[C@H](C)[C@@H]1NC(=O)[C@H](CCCNC(=N)N)NC(=O)[C@H](CC(=O)O)NC(=O)[C@H](CC(C)C)NC(=O)[C@H](CCCCN)NC(=O)[C@H](CC(C)C)NC(=O)CNC(=O)[C@H](Cc2ccccc2)NC(=O)[C@@H](NC(=O)CNC(=O)[C@H](CCC(N)=O)NC(=O)[C@H](CO)NC(=O)[C@H](CC(C)C)NC(=O)CNC(=O)[C@H](CCCCN)NC(=O)[C@H](CCCCN)NC(=O)[C@H](CCC(N)=O)NC(=O)[C@H](C)NC(=O)CNC(=O)[C@H](CCCCN)NC(=O)[C@H](Cc2ccc(O)cc2)NC(=O)[C@H](CCCCN)NC(=O)[C@H](CCCNC(=N)N)NC(=O)[C@H](C)NC(=O)COCCOCCNC(=O)COCCOCCNC(=O)COCCOCCNC(=O)COCCOCCNC(=O)CC[C@H](NC(=O)CC[C@H](NC(=O)CC[C@H](NC(=O)CC[C@H](NC(=O)CC[C@H](NC(=O)CCCCCCCCCCCCCCCCC(=O)O)C(=O)O)C(=O)O)C(=O)O)C(=O)O)C(=O)O)CSSC[C@@H](C(=O)O)NC(=O)CNC(=O)[C@H](CC(C)C)NC(=O)CNC(=O)[C@H](CO)NC(=O)[C@H](CC(C)C)NC(=O)[C@H](CO)NC(=O)CNC1=O [compound 1463] ({C18 diacid-γGlu-γGlu-γGlu-γGlu-γGlu-AEEA-AEEA-AEEA-AEEA}-ARKYKGAQKKGLSQGCFGLKLDRIGSLSGLGC-OH; disulfide 16-32)
EC50: 0.3 nM
hNPR2 0% HSA. [EC50% rel CNP]: 20.0%

CC[C@H](C)[C@@H]1NC(=O)[C@H](CCCNC(=N)N)NC(=O)[C@H](CC(=O)O)NC(=O)[C@H](CC(C)C)NC(=O)[C@H](CCCCN)NC(=O)[C@H](CC(C)C)NC(=O)CNC(=O)[C@H](Cc2ccccc2)NC(=O)[C@@H](NC(=O)CNC(=O)[C@H](CO)NC(=O)[C@H](CO)NC(=O)[C@H](CC(C)C)NC(=O)CNC(=O)[C@H](CCCCN)NC(=O)[C@H](CCCCN)NC(=O)[C@H](CCC(N)=O)NC(=O)[C@H](C)NC(=O)CNC(=O)[C@H](CCC(=O)O)NC(=O)[C@H](Cc2ccc(O)cc2)NC(=O)COCCOCCNC(=O)COCCOCCNC(=O)CC[C@H](NC(=O)CCCCCCCCCCCCCCCCC(=O)O)C(=O)O)CSSC[C@@H](C(=O)O)NC(=O)CNC(=O)[C@H](CC(C)C)NC(=O)CNC(=O)[C@H](CO)NC(=O)[C@H](CC(C)C)NC(=O)[C@H](CO)NC(=O)CNC1=O [compound 1224] ({C18 diacid-γGlu-AEEA-AEEA}-YEGAQKKGLSSGCFGLKLDRIGSLSGLGC-OH; disulfide 13-29)
EC50: 0.86 nM
hNPR2 0% HSA. [EC50% rel CNP]: 16.9%

CC[C@H](C)[C@@H]1NC(=O)[C@H](CCCNC(=N)N)NC(=O)[C@H](CC(=O)O)NC(=O)[C@H](CC(C)C)NC(=O)[C@@H]2CCCN2C(=O)[C@H](CC(C)C)NC(=O)CNC(=O)[C@H](Cc2ccccc2)NC(=O)[C@@H](NC(=O)CNC(=O)[C@H](CCCCN)NC(=O)[C@H](CO)NC(=O)[C@@H](NC(=O)CNC(=O)[C@@H](NC(=O)[C@H](CCCCN)NC(=O)[C@H](CCC(N)=O)NC(=O)[C@H](C)NC(=O)CNC(=O)[C@H](CCCCN)NC(=O)[C@H](Cc2ccc(O)cc2)NC(=O)[C@H](CCCCN)NC(=O)[C@H](CCCNC(=N)N)NC(=O)[C@H](C)NC(=O)COCCOCCNC(=O)COCCOCCNC(=O)CC[C@H](NC(=O)CC[C@H](NC(=O)CC[C@H](NC(=O)CC[C@H](NC(=O)CCCCCCCCCCCCCCCCC(=O)O)C(=O)O)C(=O)O)C(=O)O)C(=O)O)[C@@H](C)O)C(C)C)CSSC[C@@H](C(=O)O)NC(=O)CNC(=O)[C@H](CC(C)C)NC(=O)CNC(=O)[C@H](CO)NC(=O)[C@H](CC(C)C)NC(=O)[C@H](CO)NC(=O)CNC1=O [compound 1424] ({C18 diacid-γGlu-γGlu-γGlu-γGlu-AEEA-AEEA}-ARKYKGAQKTGVSKGCFGLPLDRIGSLSGLGC-OH; disulfide 16-32)
hNPR2 0% HSA. [EC50% rel CNP]: 36.2%

CC[C@H](C)[C@@H]1NC(=O)[C@H](CCCNC(=N)N)NC(=O)[C@H](CCC(=O)O)NC(=O)[C@H](CC(C)C)NC(=O)[C@@H]2CCCN2C(=O)[C@H](CC(C)C)NC(=O)CNC(=O)[C@H](Cc2ccccc2)NC(=O)[C@@H](NC(=O)CNC(=O)[C@H](CCC(N)=O)NC(=O)[C@H](CO)NC(=O)[C@H](CO)NC(=O)CNC(=O)[C@H](CCCCN)NC(=O)[C@H](CCCCN)NC(=O)[C@H](CCC(N)=O)NC(=O)[C@H](C)NC(=O)CNC(=O)[C@@H]2CCCN2C(=O)[C@H](C)NC(=O)[C@H](CCC(N)=O)NC(=O)CNC(=O)COCCOCCNC(=O)COCCOCCNC(=O)CC[C@H](NC(=O)CCCCCCCCCCCCCCCCC(=O)O)C(=O)O)CSSC[C@@H](C(=O)O)NC(=O)CNC(=O)[C@H](CC(C)C)NC(=O)CNC(=O)[C@H](CO)NC(=O)[C@H](CC(C)C)NC(=O)[C@H](CO)NC(=O)CNC1=O [compound 1486] ({C18 diacid-γGlu-AEEA-AEEA}-GQAPGAQKKGSSQGCFGLPLERIGSLSGLGC-OH; disulfide 15-31; C-terminus assumed)
EC50: 0.14 nM
hNPR2 0% HSA. [EC50% rel CNP]: 6.0%

CC[C@H](C)[C@@H]1NC(=O)[C@H](CCCNC(=N)N)NC(=O)[C@H](CC(=O)O)NC(=O)[C@H](CC(C)C)NC(=O)[C@@H]2CCCN2C(=O)[C@H](CC(C)C)NC(=O)CNC(=O)[C@H](Cc2ccccc2)NC(=O)[C@@H](NC(=O)CNC(=O)[C@H](CCCCN)NC(=O)[C@H](CO)NC(=O)[C@H](CC(C)C)NC(=O)CNC(=O)[C@H](CCCCN)NC(=O)[C@H](CCC(=O)O)NC(=O)[C@H](CCC(N)=O)NC(=O)[C@H](C)NC(=O)CNC(=O)[C@H](Cc2c[nH]cn2)NC(=O)[C@H](Cc2ccc(O)cc2)NC(=O)COCCOCCNC(=O)COCCOCCNC(=O)CC[C@H](NC(=O)CCCCCCCCCCCCCCCCC(=O)O)C(=O)O)CSSC[C@@H](C(=O)O)NC(=O)CNC(=O)[C@H](CC(C)C)NC(=O)CNC(=O)[C@H](CO)NC(=O)[C@H](CC(C)C)NC(=O)[C@H](CO)NC(=O)CNC1=O [compound 1240] ({C18 diacid-γGlu-AEEA-AEEA}-YHGAQEKGLSKGCFGLPLDRIGSLSGLGC-OH; disulfide 13-29; C-terminus assumed)
hNPR2 0% HSA. [EC50% rel CNP]: 11.2%
